Experimental data: PubChem BioAssay (NCI)
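Protocol summary: plate cells (96-well), add compound at 5 concentrations, incubate 48 h, interpolate endpoints linearly. The concentration for full growth arrest is given as TGI.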

How the values were obtained:
Experiment in all cases: inhibition of tumour cell growth, NCI panel, 48 h
NCI/ADR-RES ovarian = system: NCI/ADR-RES ovarian
A549 NSCLC = system: A549 NSCLC
U251 CNS = system: U251 CNS
T-47D breast = system: T-47D breast
HT29 colon = system: HT29 colon
K-562 leukemia = system: K-562 leukemia
NCI-H23 lung = system: NCI-H23 lung
CCRF-CEM leukemia = system: CCRF-CEM leukemia
EKVX NSCLC = system: EKVX NSCLC
SR leukemia = system: SR leukemia
UACC-62 melanoma = system: UACC-62 melanoma
HL-60(TB) leukemia = system: HL-60(TB) leukemia
NCI-H460 lung = system: NCI-H460 lung
OVCAR-5 ovarian = system: OVCAR-5 ovarian
SK-MEL-2 melanoma = system: SK-MEL-2 melanoma
NCI-H522 lung = system: NCI-H522 lung
HCT-15 colon = system: HCT-15 colon
LOX IMVI melanoma = system: LOX IMVI melanoma
MOLT-4 leukemia = system: MOLT-4 leukemia
DU-145 prostate = system: DU-145 prostate
HCT-116 colon = system: HCT-116 colon
HOP-62 NSCLC = system: HOP-62 NSCLC
SW-620 colon = system: SW-620 colon
SN12C renal = system: SN12C renal
ACHN renal = system: ACHN renal
SK-MEL-28 melanoma = system: SK-MEL-28 melanoma
MDA-N = system: MDA-N
OVCAR-8 ovarian = system: OVCAR-8 ovarian
SF-539 CNS = system: SF-539 CNS
HOP-92 NSCLC = system: HOP-92 NSCLC
IGROV1 ovarian = system: IGROV1 ovarian
MDA-MB-231 breast = system: MDA-MB-231 breast
OVCAR-4 ovarian = system: OVCAR-4 ovarian
OVCAR-3 ovarian = system: OVCAR-3 ovarian
SF-295 CNS = system: SF-295 CNS
A498 renal = system: A498 renal
SF-268 CNS = system: SF-268 CNS
COLO 205 colon = system: COLO 205 colon
CAKI-1 renal = system: CAKI-1 renal
UO-31 renal = system: UO-31 renal
M14 melanoma = system: M14 melanoma
KM12 colon = system: KM12 colon
SNB-75 CNS = system: SNB-75 CNS
UACC-257 melanoma = system: UACC-257 melanoma
RXF 393 renal = system: RXF 393 renal
PC-3 prostate = system: PC-3 prostate
RPMI-8226 leukemia = system: RPMI-8226 leukemia
SNB-19 CNS = system: SNB-19 CNS
NCI-H226 lung = system: NCI-H226 lung
MCF7 breast = system: MCF7 breast
SK-MEL-5 melanoma = system: SK-MEL-5 melanoma
HCC-2998 colon = system: HCC-2998 colon
BT-549 breast = system: BT-549 breast
786-0 renal = system: 786-0 renal
SK-OV-3 ovarian = system: SK-OV-3 ovarian
MDA-MB-435 = system: MDA-MB-435
TK-10 renal = system: TK-10 renal
HS 578T breast = system: HS 578T breast

Work on O=C(Cc1ccc(OCc2cccc(Cl)c2)cc1)NO yielded a TGI (NCI/ADR-RES ovarian) of 39.3 µM, a TGI (A549 NSCLC) of over 100 µM and a TGI (U251 CNS) of over 100 µM. For the same molecule, the TGI (T-47D breast) was 46.2 µM, the TGI (HT29 colon) was over 100 µM and the TGI (K-562 leukemia) was over 100 µM. For the same molecule, the TGI (NCI-H23 lung) was over 100 µM, the TGI (CCRF-CEM leukemia) was 42.5 µM and the TGI (EKVX NSCLC) was over 100 µM. It also gave a TGI (SR leukemia) of 32.5 µM, a TGI (UACC-62 melanoma) of 55.4 µM and a TGI (HL-60(TB) leukemia) of 44.9 µM. For the same molecule, the TGI (NCI-H460 lung) was over 100 µM, the TGI (OVCAR-5 ovarian) was over 100 µM and the TGI (SK-MEL-2 melanoma) was over 100 µM. For the same molecule, the TGI (NCI-H522 lung) was over 100 µM, the TGI (HCT-15 colon) was over 100 µM and the TGI (LOX IMVI melanoma) was 49 µM. The TGI (MOLT-4 leukemia) was 33.1 µM, the TGI (DU-145 prostate) was 66.2 µM and the TGI (HCT-116 colon) was over 100 µM. It also gave a TGI (HOP-62 NSCLC) of over 100 µM, a TGI (SW-620 colon) of over 100 µM and a TGI (SN12C renal) of 76.5 µM. It also gave a TGI (ACHN renal) of 86 µM, a TGI (SK-MEL-28 melanoma) of over 100 µM and a TGI (MDA-N) of over 100 µM. It also gave a TGI (OVCAR-8 ovarian) of 34.5 µM, a TGI (SF-539 CNS) of over 100 µM and a TGI (HOP-92 NSCLC) of over 100 µM. For the same molecule, the TGI (IGROV1 ovarian) was over 100 µM, the TGI (MDA-MB-231 breast) was over 100 µM and the TGI (OVCAR-4 ovarian) was 82.7 µM. It also gave a TGI (OVCAR-3 ovarian) of over 100 µM, a TGI (SF-295 CNS) of over 100 µM and a TGI (A498 renal) of 27 µM. For the same molecule, the TGI (SF-268 CNS) was over 100 µM, the TGI (COLO 205 colon) was over 100 µM and the TGI (CAKI-1 renal) was 68.2 µM. The TGI (UO-31 renal) was 50.4 µM, the TGI (M14 melanoma) was over 100 µM and the TGI (KM12 colon) was over 100 µM. It also gave a TGI (SNB-75 CNS) of over 100 µM, a TGI (UACC-257 melanoma) of over 100 µM and a TGI (RXF 393 renal) of over 100 µM. For the same molecule, the TGI (PC-3 prostate) was over 100 µM, the TGI (RPMI-8226 leukemia) was 50.8 µM and the TGI (SNB-19 CNS) was over 100 µM. For the same molecule, the TGI (NCI-H226 lung) was 65.4 µM, the TGI (MCF7 breast) was over 100 µM and the TGI (SK-MEL-5 melanoma) was over 100 µM. The TGI (HCC-2998 colon) was over 100 µM, the TGI (BT-549 breast) was over 100 µM and the TGI (786-0 renal) was 43.5 µM. For the same molecule, the TGI (SK-OV-3 ovarian) was over 100 µM, the TGI (MDA-MB-435) was over 100 µM and the TGI (TK-10 renal) was over 100 µM. The TGI (HS 578T breast) was over 100 µM.

In the case of C=CC(O)C#Cc1cnc(OC)nc1OC (centres undefined), the TGI (NCI/ADR-RES ovarian) is reported as over 100 µM, the TGI (A549 NSCLC) is reported as over 100 µM and the TGI (U251 CNS) is reported as over 100 µM. The TGI (T-47D breast) was over 100 µM, the TGI (HT29 colon) was over 100 µM and the TGI (K-562 leukemia) was 66.6 µM. For the same molecule, the TGI (NCI-H23 lung) was over 100 µM, the TGI (CCRF-CEM leukemia) was 47.9 µM and the TGI (EKVX NSCLC) was over 100 µM. For the same molecule, the TGI (SR leukemia) was over 100 µM, the TGI (UACC-62 melanoma) was over 100 µM and the TGI (HL-60(TB) leukemia) was 43.9 µM. The TGI (NCI-H460 lung) was over 100 µM, the TGI (OVCAR-5 ovarian) was over 100 µM and the TGI (SK-MEL-2 melanoma) was over 100 µM. The TGI (NCI-H522 lung) was over 100 µM, the TGI (HCT-15 colon) was over 100 µM and the TGI (LOX IMVI melanoma) was over 100 µM. It also gave a TGI (MOLT-4 leukemia) of over 100 µM, a TGI (DU-145 prostate) of over 100 µM and a TGI (HCT-116 colon) of over 100 µM. For the same molecule, the TGI (HOP-62 NSCLC) was over 100 µM, the TGI (SW-620 colon) was over 100 µM and the TGI (SN12C renal) was over 100 µM. The TGI (ACHN renal) was over 100 µM, the TGI (SK-MEL-28 melanoma) was over 100 µM and the TGI (MDA-N) was over 100 µM. It also gave a TGI (OVCAR-8 ovarian) of over 100 µM, a TGI (SF-539 CNS) of over 100 µM and a TGI (HOP-92 NSCLC) of over 100 µM. The TGI (IGROV1 ovarian) was over 100 µM, the TGI (MDA-MB-231 breast) was over 100 µM and the TGI (OVCAR-4 ovarian) was over 100 µM. It also gave a TGI (OVCAR-3 ovarian) of over 100 µM, a TGI (SF-295 CNS) of over 100 µM and a TGI (A498 renal) of 33 µM. The TGI (SF-268 CNS) was over 100 µM, the TGI (COLO 205 colon) was over 100 µM and the TGI (CAKI-1 renal) was over 100 µM. For the same molecule, the TGI (UO-31 renal) was over 100 µM, the TGI (M14 melanoma) was over 100 µM and the TGI (KM12 colon) was over 100 µM. It also gave a TGI (SNB-75 CNS) of over 100 µM, a TGI (UACC-257 melanoma) of over 100 µM and a TGI (RXF 393 renal) of over 100 µM. The TGI (PC-3 prostate) was over 100 µM, the TGI (SNB-19 CNS) was over 100 µM and the TGI (NCI-H226 lung) was over 100 µM. For the same molecule, the TGI (MCF7 breast) was over 100 µM, the TGI (SK-MEL-5 melanoma) was over 100 µM and the TGI (HCC-2998 colon) was over 100 µM. For the same molecule, the TGI (BT-549 breast) was over 100 µM, the TGI (786-0 renal) was over 100 µM and the TGI (MDA-MB-435) was over 100 µM. It also gave a TGI (TK-10 renal) of over 100 µM and a TGI (HS 578T breast) of over 100 µM.
